Laboratory results published in patent US7605270B2, “Polymorphic forms of (S).-tetrahydrofuran-3-yl-3-(3-(3-methoxy-4-(oxazol-5-yl) phenyl) ureido) benzylcarbamate” (Vertex Pharmaceuticals Incorporated, priority 2005, dated 2009).
Counter-ions that a name gives are not always drawn.

Assays:
IMPDH human type II = IMPDH human type II (Homo sapiens, UniProt P12268); details: general statement; disclosed in the Compound 1 patents; cited from earlier work
[1] = Maturation study of Form A1: slurry in solvent, excess solid analysed by XRPD; assay type: physicochemical; details: about 10 mg slurried in 500 μl solvent, shaken at 25-30° C. for 24 hrs
Method: X-ray powder diffraction patterns for the samples were acquired on a Bruker AXS/Siemens D5000 diffractometer using CuKα radiation (40 kV, 40 mA), ?-? goniometer, automatic divergence and receiving slits, a graphite secondary monochromator and a scintillation counter. The data were collected over an angular range of 2° to 42° 2? in continuous scan mode using a step size of 0.02° 2? and a step time of 1 second. Samples run under ambient conditions were prepared as flat plate specimens using powder as received without grinding. Approximately 25-50 mg of the sample was gently packed into 12 mm diameter, 0.5 mm deep cavities cut into polished, zero-background (510) silicon wafers (The Gem Dugout, 1652 Princeton Drive, Pennsylvania State College, PA 16803, USA). All specimens were run both stationary and rotated in their own plane during analysis. A further specimen was run using silicon powder as an internal standard to correct for any peak displacement. Samples run under non-ambient conditions were packed into a stainless steel cavity sample holder equipped with a Pt 100 thermocouple for temperature monitoring. Low temperature data were recorded using an Anton Paar TTK450 variable temperature camera attached to the Bruker AXS/Siemens D5000 diffractometer. […] The excess solid was removed by filtration and analysed by XRPD.

[2] = Hygroscopicity: water/weight uptake at 90% relative humidity; assay type: physicochemical; details: for water uptake (weight uptake): at 90% relative humidity (RH) at 25° C.; for hygroscopicity (in words): judged from uptake at 90% relative humidity

Structure (SMILES) | water uptake (weight uptake) [2] | hygroscopicity (in words) [2] | also measured
COc1cc(NC(=O)Nc2cccc(CNC(=O)O[C@H]3CCOC3)c2)ccc1-c1cnco1 [Compound 1, (S)-tetrahydrofuran-3-yl 3-(3-(3-methoxy-4-(oxazol-5-yl)phenyl)ureido)benzylcarbamate] |  |  | IMPDH inhibition (in words) (IMPDH human type II): potent IMPDH inhibitor
COc1cc(NC(=O)Nc2cccc(CNC(=O)O[C@H]3CCOC3)c2)ccc1-c1cnco1 [Form A1, (S)-tetrahydrofuran-3-yl 3-(3-(3-methoxy-4-(oxazol-5-yl)phenyl)ureido)benzylcarbamate] | less than 0.5% | non-hygroscopic | XRPD patterns observed after maturation, all 31 solvents [1]: consistent with the pattern of Form A1
COc1cc(NC(=O)Nc2cccc(CNC(=O)O[C@H]3CCOC3)c2)ccc1-c1cnco1 [Form C3, (S)-tetrahydrofuran-3-yl 3-(3-(3-methoxy-4-(oxazol-5-yl)phenyl)ureido)benzylcarbamate] | 3% | moderately hygroscopic | 
COc1cc(NC(=O)Nc2cccc(CNC(=O)O[C@H]3CCOC3)c2)ccc1-c1cnco1 [Form E5 HCl salt, (S)-tetrahydrofuran-3-yl 3-(3-(3-methoxy-4-(oxazol-5-yl)phenyl)ureido)benzylcarbamate, HCl salt] |  |  | uptake ([2]; at 90% relative humidity): 22 % w/w; hygroscopicity (in words) ([2]; HCl salt): highly hygroscopic
